Source: patent US11465978B2, “Anthranilic amides and the use thereof” (THE ADMINISTRATORS OF THE TULANE EDUCATIONAL FUND, priority 2013, dated 2022)

Legend:
[1] = tested on: Mia-PaCa2 cells; assay: Crystal violet morphology of pancreatic cancer cells; type: cell-based; settings: Mia-PaCa2, 3 days
Procedure: (A) Mia-PaCa2 cells were seeded in a 96-well plate at a density of 1,000 cells per well and treated with vehicle (DMSO) and SC-1-151. After 3 days, cells were fixed with glutaraldehyde and stained with crystal violet. (B) qPCR for EMT-regulating genes following SC-1-151 treatment. Pancreatic cancer cells were grown in 5% CS phenol free DMEM for 48 hours before treatment with vehicle (DMSO) or SC-1-151 (1 μM) for 24 hours. Cycle number was normalized to R-actin and vehicle-treated cells scaled to 1, n=3.

[2] = tested on: MDA-MB 231 cells; assay: Crystal violet proliferation study; type: cell-based
Procedure: FIG. 11 is a graph showing the results of MDA-MB 231 proliferation studies. MDA-MB 231 cells were used as they express the triple negative cancer phenotype. Compound 3 was selected due to potency in inhibition of both MEK1/2 and MEK5. MDA-MB 231 cells were plated at 10,000 cells per well in a 96 well TC plate in 5% Charcoal-Dextran stripped media and incubated overnight at 37° C. in 5% CO2. The cells were treated with drug or vehicle the following day. Plates were harvested on days 3, 5 and 7 and stained with Crystal Violet. […] The cells were washed, lysed, and the absorbance of Crystal Violet sequestered in living cells was determined at […]. Wells were conducted in duplicate. Experiments were run in triplicate. Cells were normalized to initial cell count.
Proliferation studies were conducted using MDA-MB 231 cells, as they express the triple negative cancer phenotype. […] The cells were washed, lysed, and the absorbance of Crystal Violet sequestered in living cells was determined at […]. […]
Triple-negative breast cancer (TNBC) cells MDA-MB-231 were seeded in 96-well plates at a density of 2,000 cells per well in 5% charcoal-stripped phenol free DMEM, allowed to attach overnight, and subsequently treated with DMSO and MEK inhibitor compounds in duplicate. […] Cells were washed, lysed with 33% acetic acid, and the absorbance was read at 630 nm in a Biotek Synergy plate reader. […]

NC(=O)c1ccc(F)c(F)c1Nc1ccc(I)cc1F [Compound 3, 3,4-difluoro-2-((2-fluoro-4-iodophenyl)amino)benzamide]
phenotype of pancreatic cancer cells [1]: induces an epithelial phenotype | reduction in growth relative to untreated (DMSO) ([2]; 7 day time point): 70% | overt cell death ([2]; even at saturation concentrations): No overt cell death
